Reference: patent US20070077311A1, “Fumigant/sterilant” (priority 2003, published 2007)

How the values were obtained:
[1] = Flammability limit tests of cyanogen/CO2 mixtures in air; type: physicochemical
Text: The apparatus allows continuous metering and mixing of known proportions of cyanogen, carbon dioxide and air. This permitted a number of ignition tests to be made in a relatively short period.
The apparatus comprises sources of compressed air 1, carbon dioxide 2 and the active chemical cyanogen 3. […] The resultant mixture flows through tube 7 where it is diverted to an oxygen analyser 8 to determine its content, and an ignition tube 9 with ignition source 10 for flammability testing.
Similarly, for the tests involving the addition of carbon dioxide, the proportions of air and CO2 were set using the previously arrived calibration material and at least two minutes were allowed to elapse between adjustment of the CO2/air proportions and ignition tests.
Ignition tests involved switching a high voltage across an approximately 5 mm gap 10 within the flow ignition tube 9. […]
Turning to FIG. 2, it is now possible to determine what proportion of cyanogen in carbon dioxide will remain inert in all proportions with air. Line A shown in FIG. 2 has the maximum slope that can be achieved whilst still remaining wholly below the experimentally determined lower explosive limits and passing through the origin.
For reasons of safety, the Applicant has determined a preferred content of around 20% v/v as this gives an additional margin of safety.

rat = conditions: 1 hour inhalation; cited from earlier work
[2] = cited from earlier work

**Q.** What does the source list for `N#CC#N` [cyanogen]?
**A.** maximum proportion of cyanogen in carbon dioxide which is inert in all proportions with air ([1]; from slope of Line A in FIG. 2, ignition source 2): approximately 26%; maximum of cyanogen in carbon dioxide gas inert in all proportions of air ([1]; subsequent testing): around 26 % v/v; LC50 (rat): 350 ppm; Flammability limits in air [2]: 6-32 % v/v; known LEL of cyanogen in air ([2]; literature value): 6%; known UEL of cyanogen in air ([2]; literature value): 32 % v/v
